# Patent EP2678315B1, “(Pyridin-4-yl)benzylamides as allosteric modulators of alpha 7 nAChR” (Janssen Pharmaceutica, N.V., priority 2011, dated 2012)
# Where two headings read alike, the source gives them in different places.
# How the values were obtained:
# human alpha 7-wt nAChR [1] = target: T1, human alpha 7-wt nAChR (Homo sapiens, UniProt P36544); experiment: Ca2+ flux imaging (FDSS) (protocol B); format: cell-based; conditions: for EC50: read-out: pEC50 (converted); for Emax: read-out: % Efficacy
# T1 construct: expressed in transfected cells
# T1 sequence (P36544 23-502): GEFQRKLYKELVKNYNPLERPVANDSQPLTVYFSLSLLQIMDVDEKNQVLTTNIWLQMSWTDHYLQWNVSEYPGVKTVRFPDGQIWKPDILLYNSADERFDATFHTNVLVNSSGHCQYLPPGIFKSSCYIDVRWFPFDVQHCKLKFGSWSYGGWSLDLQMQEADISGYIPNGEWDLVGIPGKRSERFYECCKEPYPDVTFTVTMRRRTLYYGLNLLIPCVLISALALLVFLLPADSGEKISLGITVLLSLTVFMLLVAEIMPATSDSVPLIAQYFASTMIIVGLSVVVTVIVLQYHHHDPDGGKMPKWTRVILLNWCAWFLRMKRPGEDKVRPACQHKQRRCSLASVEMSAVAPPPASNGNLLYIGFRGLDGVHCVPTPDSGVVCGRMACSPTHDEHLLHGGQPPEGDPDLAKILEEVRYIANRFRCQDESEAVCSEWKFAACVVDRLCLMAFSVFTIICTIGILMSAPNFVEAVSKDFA
# Method in brief: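 Fluo-4AM-loaded (2 µM) cells expressing human α7-wt nAChR in HEPES-HBSS with 5 mM CaCl2. Compounds (0.01–30 µM) were added, possibly 10 min before, with choline 100 µM, and peak fluorescence was monitored by FDSS. Potentiation was relative to the choline response, set as 100%; EC50 came from sigmoidal curves.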
# human alpha 7-wt nAChR [2] = target: T1, human alpha 7-wt nAChR; experiment: Patch-clamp current recording (whole-cell voltage-clamp, GH4C1 cells); format: cell-based; design: key: Type 0 compounds minimally change the effect size of the current elicited by 1 mM choline.; Type 1 compounds enhance the effect size of the current elicited by 1 mM choline but minimally alter the kinetics of the receptor.; Type 2 compounds enhance the effect size of the current elicited by 1 mM choline while reducing the rate and/or the extent of desensitization.; Type 3 compounds enhance the effect size of the current elicited by 1 mM choline. When tested at higher concentrations up to 10 µM they completely inhibit desensitization; Type 4 compounds allow for an initial desensitization of the receptor followed by a re-opening of the receptor during agonist application; conditions: current elicited by 1 mM choline
# Method: The compounds of the present invention are classified as type 1-4, based on qualitative kinetic properties, as determined by whole-cell voltage-clamp recordings. This classification is based on the effect of an alpha 7 PAM compound, as described hereinbefore, on the signal elicited by an agonist application. In particular, said agonist is choline at a concentration of 1mM. In a preferred experimental setting, said alpha 7 PAM compound and choline are simultaneously applied to the cell, as described hereinafter. Desensitization is defined as the closure of the receptor upon activation during the application of the agonist in whole-cell voltage-clamp electrophysiology measurements seen as the reduction of the […] current after initial activation by the agonist.
# The definition of the PAM types 1-4 is described hereinafter: Type 0 compounds minimally change the effect size of the current elicited by 1 mM choline. Type 1 compounds enhance the effect size of the current elicited by 1 mM choline but minimally alter the kinetics of the receptor. In particular, the rate and the extent of desensitization and of deactivation of the receptor elicited by the agonist is not affected. The compound-modulated response to 1 mM choline, therefore, is close to a linear scaling of the 1 mM choline response in absence of the alpha 7 PAM compound: Type 2 compounds enhance the effect size of the current elicited by 1 mM choline while reducing the rate and/or the extent of desensitization. Deactivation of the receptor is generally unaffected. Type 3 compounds enhance the effect size of the current elicited by 1 mM choline. […] Deactivation of the receptor may be slowed down. Type 4 compounds allow for an initial desensitization of the receptor followed by a re-opening of the receptor during agonist application. At low-potency concentrations of the alpha 7 PAM compound, the agonist-induced activation, which is followed by desensitization, can still be separated from the compound-induced re-opening as an initial inward current-maximum. At higher potency concentrations of the alpha 7 PAM compound, the re-opening occurs faster than the closure due to desensitization so that the initial current-maximum disappears.
# A compound was considered to have interesting PAM-like activity when the potentiation of the peak current was at least 200% compared to the control choline response (= 100%). Such compounds are classified as belonging to a particular PAM type in the Experimental Part. Compounds not meeting the condition are not classified as belonging to a particular PAM-type.
# The compounds also have a potentiating effect on the response to choline when measured by whole-cell patch clamp electrophysiology in GH4C1 cells stably over-expressing the human wild-type alpha 7 receptor.
# Example D.2 : Patch-clamp current recording
# Patch-clamp recording from mammalian cells has provided a powerful means of assessing the function of membrane-bound proteins thought to be subunits of ligand-gated ion channels. Activation of such proteins by endogenous or exogenous ligands cause opening of a pore associated with the receptor through which ions flow down their electrochemical gradient. In the case of the human alpha 7-wt nAChR-expressing GH4C1 recombinant cell line the preferential permeability to calcium of this receptor means that calcium flows into the cell upon activation by ACh, choline and other nicotinic ligands giving rise to a calcium current. Since this receptor rapidly desensitizes in the presence of agonist it is important that an application system is used which is capable of very rapid switching of solutions (< 100 ms) to prevent partial or full desensitisation of receptor responses coincident with the time of agonist application. Consequently, a second convenient technique to assess the enhancement of nicotinic efficacy is a patch-clamp recording from human alpha 7-wt nAChR-expressing GH4C1 cells coupled with a rapid-application system. […]
Emax (human alpha 7-wt nAChR [1]; Ca2+ assay as described in D.1),SMILES,EC50 (human alpha 7-wt nAChR [1]; Ca2+ assay as described in D.1),PAM type (human alpha 7-wt nAChR [2]),Emax (human alpha 7-wt nAChR [1])
,Cc1cc(-c2c(F)cc(N3C[C@@H](C)O[C@@H](C)C3)cc2CNC(=O)C2CCOCC2)cc(C)n1 [Compound 86],148 nM,3,
,Cc1cc(-c2c(Cl)cc(N3C[C@@H](C)O[C@@H](C)C3)cc2CNC(=O)c2cc(C)on2)cc(C)n1 [Compound 120],661 nM,1,
,"Cc1cc(-c2ccc(N3C[C@@H](C)O[C@@H](C)C3)cc2CNC(=O)CC2CC2)cc(C)n1 [Compound 1, N-[[5-[(2R,6S)-2,6-dimethyl-4-morpholinyl]-2-(2,6-dimethyl-4-pyridinyl)phenyl]methyl]-cyclopropaneacetamide]",40.7 nM,3,
,Cc1cc(-c2c(F)cc(N3C[C@@H](C)O[C@@H](C)C3)cc2CNC(=O)C(C)C)ccn1 [Compound 89],72.4 nM,2,
,Cc1cc(-c2ccc(N3C[C@@H](C)O[C@@H](C)C3)cc2CNC(=O)C2CC2)cc(C)n1 [Compound 6],120 nM,2,
,Cc1cc(-c2c(F)cc(N3CCO[C@@H](C(F)(F)F)C3)cc2CNC(=O)c2conc2C)cc(C)n1 [Compound 103],16.6 nM,3,796%
,Cc1cc(-c2ccc(N3C[C@@H](C)O[C@@H](C)C3)c(CNC(=O)C(C)C)c2)cc(C)n1 [Compound 134],91.2 nM,3,
,Cc1cc(-c2c(F)cc(N3CCO[C@H](C(F)(F)F)C3)cc2CNC(=O)CC2CCC2)cc(C)n1 [Compound 105],17 nM,3,559%
,Cc1cc(-c2c(F)cc(N3CCO[C@H](C(F)(F)F)C3)cc2CNC(=O)CC2CC2)cc(C)n1 [Compound 108],18.6 nM,2,432%
,Cc1cc(-c2c(F)cc(N3CCO[C@H](C(F)(F)F)C3)cc2CNC(=O)C(C)C)cc(C)n1 [Compound 107],30.9 nM,2,266%
,Cc1cc(-c2c(F)cc(N3C[C@@H](C)O[C@@H](C)C3)c(F)c2CNC(=O)CC2CC2)cc(C)n1 [Compound 124],347 nM,2,
528%,CC(C)C(=O)NCc1cc(N2CCOCC2)ccc1-c1ccncc1 [Compound 137],,0,
,Cc1cc(-c2c(F)cc(N3CCO[C@@H](C(F)(F)F)C3)cc2CNC(=O)CC2CC2)cc(C)n1 [Compound 104],9.12 nM,3,
,Cc1cc(-c2c(F)cc(N3CCO[C@@H](C(F)(F)F)C3)cc2CNC(=O)c2cc(C)on2)cc(C)n1 [Compound 100],155 nM,2,
,Cc1cc(-c2c(F)cc(N3CCO[C@H](C(F)(F)F)C3)cc2CNC(=O)CC(C)C)cc(C)n1 [Compound 110],5.01 nM,3,384%
,Cc1cc(-c2c(Cl)cc(N3C[C@@H](C)O[C@@H](C)C3)cc2CNC(=O)CC2CC2)cc(C)n1 [Compound 119],28.8 nM,2,624%
,Cc1cc(-c2c(F)cc(N3CCOC(C)C3)cc2CNC(=O)C2CC2)cc(C)n1 (stereo not drawn) [Compound 115],525 nM,2,232%
,Cc1cc(-c2ccc(N3C[C@@H](C)O[C@@H](C)C3)c(CNC(=O)c3cc(C)on3)c2)cc(C)n1 [Compound 133],50.1 nM,0,
,Cc1cc(-c2ccc(N3CC4CCC(C3)O4)cc2CNC(=O)C2CC2)cc(C)n1 [Compound 131],631 nM,2,269%
,Cc1cc(-c2c(F)cc(N3C[C@@H](C)O[C@@H](C)C3)cc2CNC(=O)c2conc2C)ccn1 [Compound 91],61.7 nM,2,
,Cc1cc(-c2c(F)cc(N3CCOC(C)C3)cc2CNC(=O)c2cc(C)on2)cc(C)n1 (stereo not drawn) [Compound 112],1070 nM,2,443%
,Cc1cc(-c2c(F)cc(N3CCOC(C)C3)cc2CNC(=O)C(C)C)cc(C)n1 (stereo not drawn) [Compound 113],89.1 nM,2,284%
